# Experimental data as given in PubChem BioAssay (NCI).
#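 A five-concentration, 48-hour dose response in 96-well plates underlies each endpoint, interpolated linearly between surrounding concentrations. The concentration for 50% growth inhibition is given as GI50. TGI is the concentration that stops growth completely.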
# What was measured:
# Experiment in all cases: NCI-60 cell line screen, 48 h
# CAKI-1 renal = test system: CAKI-1 renal
# BT-549 breast = test system: BT-549 breast
# SR leukemia = test system: SR leukemia
# UO-31 renal = test system: UO-31 renal
# NCI-H460 lung = test system: NCI-H460 lung
# NCI/ADR-RES ovarian = test system: NCI/ADR-RES ovarian
# MCF7 breast = test system: MCF7 breast
# U251 CNS = test system: U251 CNS
# DU-145 prostate = test system: DU-145 prostate
# HOP-62 NSCLC = test system: HOP-62 NSCLC
SMILES,GI50 (CAKI-1 renal) [µM],TGI (CAKI-1 renal) [µM],GI50 (BT-549 breast) [µM],TGI (BT-549 breast) [µM],GI50 (SR leukemia) [µM],GI50 (UO-31 renal) [µM],TGI (UO-31 renal) [µM],GI50 (NCI-H460 lung) [µM],TGI (NCI-H460 lung) [µM],GI50 (NCI/ADR-RES ovarian) [µM],TGI (NCI/ADR-RES ovarian) [µM],GI50 (MCF7 breast) [µM],TGI (MCF7 breast) [µM],GI50 (U251 CNS) [µM],TGI (U251 CNS) [µM],GI50 (DU-145 prostate) [µM],TGI (DU-145 prostate) [µM],GI50 (HOP-62 NSCLC) [µM],TGI (HOP-62 NSCLC) [µM],TGI (SR leukemia) [µM]
NC(=O)c1cc(I)ccc1NC(=O)/C=C/c1ccccc1,0.652,24.8,2.39,27.5,0.419,1.77,> 48.9,0.417,3.44,0.351,3.92,0.403,> 42.6,0.504,14.6,0.352,2.97,1.12,23.8,–
CCN(CCNS(C)(=O)=O)c1ccc(N)c(C)c1,2.54,6.78,10.1,22.2,5.14,2.58,7.67,23.2,53.7,11.8,40.9,4.3,27.2,18.1,32.5,10.8,22.8,16.2,31.1,23.8
Cc1cc(C(=O)CSC(=S)SC(C)(C)C)ccc1Cl,–,> 100,–,53.1,–,–,42.6,–,28.3,–,42.1,–,> 100,–,28.3,–,> 100,–,37.4,46.9
CCOC(=O)c1c(C)c2c(n1Cc1ccccc1)CSCC2=O,11,52.2,21,77.6,7.06,13.5,> 100,20.4,55.1,16.7,51.4,17.7,44.7,22.4,> 100,21.9,> 100,22.9,63.5,> 100
C[C@H](CCOc1cccc(CC(=O)O)c1)N(Cc1cccc(C(F)(F)F)c1Cl)CC(c1ccccc1)c1ccccc1,5.79,18.2,5.39,20,5.51,2.36,14.7,3.9,13.6,6.97,21.3,3.53,17.9,4.1,19.3,7.89,20.4,6.26,26.4,51.6
COC(=O)c1c(C)cc(OC)c(C/C=C(\C)CCCc2coc(C=C(C)C)c2)c1OC,–,> 100,–,> 100,–,–,> 100,–,> 100,–,> 100,–,> 100,–,> 100,–,> 100,–,> 100,> 100
COC(=O)/C=C/c1cc(OC(C)=O)c2c(c1)C(C(=O)OC)C(c1ccc(OC(C)=O)c(OC(C)=O)c1)O2 (configuration not stated),0.278,94,0.127,2.27,0.0303,0.99,> 72.3,1.03,13.6,0.098,> 100,0.0353,48.6,0.11,> 50.9,0.131,> 100,0.438,> 100,30.4
O=[N+]([O-])c1ccccc1N=Nc1c(O)[nH]c2c(Cl)cc(Cl)cc12,–,> 91.8,–,30.5,–,–,> 100,–,> 100,–,> 100,–,> 100,–,27.7,–,> 100,–,> 23.1,22.6
O=C(O)c1ccc(CNCc2ccccc2)cc1,–,> 100,–,> 100,–,–,> 100,–,> 100,–,> 100,–,> 100,–,> 100,–,> 100,–,> 100,> 100
CCN(Cc1c(F)cccc1OC)c1ccc(CO)c(Cl)c1,3.05,35.5,17.6,36.9,18.3,14.9,48.8,0.201,11.7,13.3,43.1,0.165,16.1,0.716,26.7,17.8,> 57.3,2.69,25.5,55.5
CNCCCNc1ccnc2cc(Cl)ccc12,17.3,48.6,28.3,> 100,22.5,12.8,47.7,17.9,37.8,34.4,> 100,23.4,83.8,22.5,62.4,17.3,38.5,22.4,> 100,70.8
Nc1nc(Cl)nc2c1ncn2C1CC(O)C(CO)O1 (configuration not stated),–,17.3,0.345,> 100,5.66,–,8.76,–,> 100,–,> 100,–,> 100,–,> 96.5,1.81,> 100,–,6.8,> 100
